From US6914045B2, “Glycopeptide antibiotics” (Wyeth Holdings Corporation, priority 2001, dated 2005)
Values after ≈ are worked out from the molar mass of the structure shown.

Key:
Test in all cases: in vitro antibacterial evaluation, MIC by broth dilution
Format in all cases: cell-based
Enterococcus sp. = conditions: broth dilution, 18 hours at 35° C.
Procedure, shortened: (§1)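 Read-out: the lowest concentration at which the test strain fails to grow. Serial dilutions (64-0.06 μg/mL) in Muller-Hinton II […], 5×10^5 CFU/mL inoculum, NCCLS M7-A2 procedure.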

Escherichia coli = conditions: 18 hours at 35° C., strain ATCC 25922
Procedure, shortened: as §1

Staphylococcus sp. = conditions: broth dilution, 18 hours at 35° C.
Procedure, shortened: as §1

Streptococcus sp. = conditions: broth dilution, 18 hours at 35° C.
Procedure, shortened: as §1

MIC Enterococcus avium (GC 4558) (Enterococcus sp.; Enterococcus avium (GC 4558)): 2 µg/mL (≈ 1.45 µM)
MIC Enterococcus faecalis (ATCC 29212) (Enterococcus sp.; Enterococcus faecalis (ATCC 29212)): 2 µg/mL (≈ 1.45 µM)
MIC Enterococcus faecalis (GC 2242) (Enterococcus sp.; Enterococcus faecalis (GC 2242)): 2 µg/mL (≈ 1.45 µM)
MIC Enterococcus faecalis (GC 4552) (Enterococcus sp.; Enterococcus faecalis (GC 4552)): 2 µg/mL (≈ 1.45 µM)
MIC Enterococcus faecalis (GC 4553) (Enterococcus sp.; Enterococcus faecalis (GC 4553)): 2 µg/mL (≈ 1.45 µM)
MIC Enterococcus faecalis (GC 4554) (Enterococcus sp.; Enterococcus faecalis (GC 4554)): 2 µg/mL (≈ 1.45 µM)
MIC Enterococcus faecium (GC 2243) (Enterococcus sp.; Enterococcus faecium (GC 2243)): 2 µg/mL (≈ 1.45 µM)
MIC Enterococcus faecium (GC 4556) (Enterococcus sp.; Enterococcus faecium (GC 4556)): 2 µg/mL (≈ 1.45 µM)
MIC Enterococcus faecium (GC 4557) (Enterococcus sp.; Enterococcus faecium (GC 4557)): 1 µg/mL (≈ 0.726 µM)
MIC Enterococcus faecalis (ATCC 29212) (Enterococcus sp.; strain ATCC 29212): 2 µg/mL (≈ 1.45 µM)
MIC Enterococcus faecalis (GC 2242) (Enterococcus sp.; strain GC 2242): 2 µg/mL (≈ 1.45 µM)
MIC Enterococcus faecium (GC 2243) (Enterococcus sp.; strain GC 2243): 2 µg/mL (≈ 1.45 µM)
MIC Enterococcus faecalis (GC 4552) (Enterococcus sp.; strain GC 4552): 2 µg/mL (≈ 1.45 µM)
MIC Enterococcus faecalis (GC 4553) (Enterococcus sp.; strain GC 4553): 2 µg/mL (≈ 1.45 µM)
MIC Enterococcus faecalis (GC 4554) (Enterococcus sp.; strain GC 4554): 2 µg/mL (≈ 1.45 µM)
MIC Enterococcus faecium (GC 4556) (Enterococcus sp.; strain GC 4556): 2 µg/mL (≈ 1.45 µM)
MIC Enterococcus faecium (GC 4557) (Enterococcus sp.; strain GC 4557): 1 µg/mL (≈ 0.726 µM)
MIC Enterococcus avium (GC 4558) (Enterococcus sp.; strain GC 4558): 2 µg/mL (≈ 1.45 µM)
MIC Escherichia coli (ATCC 25922) (Escherichia coli): 32 µg/mL (≈ 23.2 µM)
MIC Coagulase Negative Staphylococcus (GC 4547) (Staphylococcus sp.): 1 µg/mL (≈ 0.726 µM)
MIC Coagulase Negative Staphylococcus (GC 4548) (Staphylococcus sp.): <0.5 µg/mL
MIC Coagulase Negative Staphylococcus (GC 4549) (Staphylococcus sp.): 1 µg/mL (≈ 0.726 µM)
MIC Coagulase Negative Staphylococcus (GC 4551) (Staphylococcus sp.): 1 µg/mL (≈ 0.726 µM)
MIC Coagulase Negative Staphylococcus (ID-3941) (Staphylococcus sp.): 1 µg/mL (≈ 0.726 µM)
MIC Staphylococcus aureus (ATCC 29213) (Staphylococcus sp.): 1 µg/mL (≈ 0.726 µM)
MIC Staphylococcus aureus (GC 1131) (Staphylococcus sp.): 1 µg/mL (≈ 0.726 µM)
MIC Staphylococcus aureus (GC 4541) (Staphylococcus sp.): 1 µg/mL (≈ 0.726 µM)
MIC Staphylococcus aureus (GC 4542) (Staphylococcus sp.): 1 µg/mL (≈ 0.726 µM)
MIC Staphylococcus aureus (GC 4544) (Staphylococcus sp.): 1 µg/mL (≈ 0.726 µM)
MIC Staphylococcus aureus (GC 4545) (Staphylococcus sp.): 1 µg/mL (≈ 0.726 µM)
MIC Staphylococcus aureus-SMITH (GC 4543) (Staphylococcus sp.): 1 µg/mL (≈ 0.726 µM)
MIC Staphylococcus aureus (GC 1131) (Staphylococcus sp.; inoculum 5×10^5 CFU/mL, strain GC 1131): 1 µg/mL (≈ 0.726 µM)
MIC Staphylococcus aureus (ATCC 29213) (Staphylococcus sp.; strain ATCC 29213): 1 µg/mL (≈ 0.726 µM)
MIC Staphylococcus aureus (GC 4541) (Staphylococcus sp.; strain GC 4541): 1 µg/mL (≈ 0.726 µM)
MIC Staphylococcus aureus (GC 4542) (Staphylococcus sp.; strain GC 4542): 1 µg/mL (≈ 0.726 µM)
MIC Staphylococcus aureus (GC 4544) (Staphylococcus sp.; strain GC 4544): 1 µg/mL (≈ 0.726 µM)
MIC Staphylococcus aureus (GC 4545) (Staphylococcus sp.; strain GC 4545): 1 µg/mL (≈ 0.726 µM)
MIC Coagulase Negative Staphylococcus (GC 4547) (Staphylococcus sp.; strain GC 4547): 1 µg/mL (≈ 0.726 µM)
MIC Coagulase Negative Staphylococcus (GC 4548) (Staphylococcus sp.; strain GC 4548): <0.5 µg/mL
MIC Coagulase Negative Staphylococcus (GC 4549) (Staphylococcus sp.; strain GC 4549): 1 µg/mL (≈ 0.726 µM)
MIC Coagulase Negative Staphylococcus (GC 4551) (Staphylococcus sp.; strain GC 4551): 1 µg/mL (≈ 0.726 µM)
MIC Coagulase Negative Staphylococcus (ID-3941) (Staphylococcus sp.; strain ID-3941): 1 µg/mL (≈ 0.726 µM)
MIC Staphylococcus aureus-SMITH (GC 4543) (Staphylococcus sp.; strain SMITH GC 4543): 1 µg/mL (≈ 0.726 µM)
MIC Streptococcus agalactiae (GC 4564) (Streptococcus sp.; Streptococcus agalactiae (GC 4564)): <0.5 µg/mL
MIC Streptococcus pneumoniae (GC 4565) (Streptococcus sp.; Streptococcus pneumoniae (GC 4565)): <0.5 µg/mL
MIC Streptococcus pyogenes (ID-3187) (Streptococcus sp.; Streptococcus pyogenes (ID-3187)): <0.5 µg/mL
MIC Streptococcus agalactiae (GC 4564) (Streptococcus sp.; strain GC 4564): <0.5 µg/mL
MIC Streptococcus pneumoniae (GC 4565) (Streptococcus sp.; strain GC 4565): <0.5 µg/mL
MIC Streptococcus pyogenes (ID-3187) (Streptococcus sp.; strain ID-3187): <0.5 µg/mL
SMILES: CCCCCC1OCC2OC(OC3C(CO)OC(Oc4ccc(CC5NC(=O)C(C(C)c6ccccc6)NC(=O)CNC(=O)C(CO)NC(=O)C(C(O)C6CNC(=N)N6C6OC(CO)C(O)C(O)C6O)NC(=O)C(C(O)C6CNC(=N)N6)NC5=O)cc4)C(O)C3O)C(O)C(O)C2O1 (stereo not drawn) [Example 108, Cyclo[glycyl-β-methylphenylalanyl-O-[4-O-(4,6-O-hexylidenehexopyranosyl)hexopyranosyl]-tyrosyl-3-(2-iminoimidazolidin-4-yl)seryl-3-(3-hexopyranosyl-2-iminoimidazolidin-4-yl)-serylseryl]]
MIC Staphylococcus haemolyticus (GC 4546) (Staphylococcus sp.): 1 µg/mL (≈ 0.726 µM)
MIC Staphylococcus haemolyticus (GC 4546) (Staphylococcus sp.; strain GC 4546): 1 µg/mL (≈ 0.726 µM)
